Patent US20250276993A1, “PSEUDO-DISACCHARIDE COMPOUNDS” (UNIVERSITEIT LEIDEN, priority 2022, published 2025)

Legend:
B16-BL6 melanoma cells = test: B16 melanoma experimental lung metastasis model; type: in vivo, C57BL/J6 mice; conditions: after 14 days; 2: 300 nmol/mouse i.p.; SST0001: 150 μg/mouse i.p.; vs PBS-only control
Description: B16 melanoma—Twenty minutes before tumor cell inoculation, C57BL/J6 mice (n=5) were injected intraperitoneally with vehicle alone (PBS), compound 2 (300 nmol/mouse), or SST0001 (150 μg/mouse). Mice were subsequently intravenously inoculated with 1.5×10^5 B16-BL6 melanoma cells/mouse in a volume of 100 μL, alongside 20 μM 2 or 10 μg SST0001. Mice were sacrificed after 14 days and the lungs were dissected, photographed and evaluated for the number of metastatic foci/lung.
The compounds of the invention were tested against a B16 murine melanoma experimental metastasis model, which measures the formation of metastatic lung tumors by B16 cancer cells after intravenous (i.v.) injection. Additionally, the compounds of the invention were tested against a second cancer model—4T1 murine mammary carcinoma, which also metastasizes to the lungs upon injection.

rHPSE = molecular target: T1, rHPSE (Homo sapiens, UniProt Q9Y251); test: in-gel competitive ABPP, recombinant HPSE; type: biochemical; conditions: apparent IC50, in-gel competitive ABPP-based assay; read-out: In vitro IC50 rHPSE
T1 sequence (Q9Y251 36-109 limits assumed): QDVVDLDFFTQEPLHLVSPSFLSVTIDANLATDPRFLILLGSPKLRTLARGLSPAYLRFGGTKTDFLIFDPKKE
T1 sequence (Q9Y251 158-543 limits assumed): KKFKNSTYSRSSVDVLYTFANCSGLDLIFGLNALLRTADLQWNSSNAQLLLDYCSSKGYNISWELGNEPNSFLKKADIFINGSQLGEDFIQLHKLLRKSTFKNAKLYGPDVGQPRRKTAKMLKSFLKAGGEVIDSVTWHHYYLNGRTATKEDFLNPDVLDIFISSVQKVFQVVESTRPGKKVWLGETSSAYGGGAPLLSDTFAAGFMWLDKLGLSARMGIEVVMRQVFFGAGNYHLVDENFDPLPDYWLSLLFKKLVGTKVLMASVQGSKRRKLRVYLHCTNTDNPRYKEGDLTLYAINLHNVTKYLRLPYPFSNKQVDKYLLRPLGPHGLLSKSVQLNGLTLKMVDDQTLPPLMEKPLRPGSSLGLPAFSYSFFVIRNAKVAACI
Description: ABP labelling reactions were carried out in Mcllvaine buffer (pH 5.5), 300 mM NaCl. For recombinant proteins 200 fmol of EcGH2, BpHep, AcGH79, HPSE or proHPSE was used (20 nM in 10 μl final reaction volume). For labeling cell lysates, 4-20 μg total protein was used. Labeling reactions were initiated by the addition of ABP compounds 7, 8 or 9 to a final concentration of 100 nM (unless otherwise specified), before incubation for 30 min at 37° C. with shaking. Following labeling, samples were denatured by boiling with Laemmli buffer for 5 min and resolved by SDS-PAGE. Gels were scanned using Typhoon-5 laser scanner platform (Cytiva), using the λEX 635 nm laser and 670BP30 emission filter. For competitive ABPP (cABPP) experiments, protein mixtures were preincubated with inhibitor (or buffer only control) for 1 h at 37° C. with shaking, before the addition of 7 to a final concentration of 100 nM, and subsequent incubation for 30 min at 37° C. with shaking. SDS-PAGE and analysis steps were carried out as above. For quantitative measurements, fluorescently labeled band intensities were calculated using Imagequant (Cytiva), and normalized to the corresponding band in the inhibitor free control lane. cABPP plots were prepared and analyzed using SigmaPlot 14.0 (Systat).
Competitive activity of compounds 2, 12 and 13 were investigated using cABPP Assay 2.
To gain insight into HPSE structure-activity relationships, apparent HPSE inhibition was tested for cyclitol 12, its disaccharidic analogue 13 and parent HPSE inhibitor 2 (FIG. 7a). […] Conversely, 13 could inactivate rHPSE down to 2 μM inhibitor concentration similar to 2.

- IC50 (rHPSE): 0.3 ± 0.2 µM
Compound: CC(=O)NC1C(O)[C@H](O)C(CO)O[C@@H]1O[C@H]1C(O)C(O)[C@@H]2OC2C1C(=O)O (stereo partly drawn) [Compound 2, 4-O-(2-N-acetyl-2-deoxy-D-glucopyranosyl)-glucurono-cyclophellitol]
- lung metastases (B16) (B16-BL6 melanoma cells): marked reduction in lung growths
